Experimental data reported in patent US8664265B2, “Stable dosage forms of spiro and dispiro 1,2,4-trioxolane antimalarials” (Ranbaxy Laboratories Limited, priority 2005, dated 2014).

How the values were obtained:
[1] = Compatibility studies of active compound with excipients, forced degradation, total related substances by HPLC; assay type: physicochemical
Experimental: (§1) The role of excipients and water content was evaluated by conducting compatibility studies of active compound with various excipients, in different proportions and evaluating the extent of degradation by forced degradation at 60° C. over the period of 2 weeks and at 50° C. for 4 weeks. The water content was analyzed using Karl Fischer method and the total related substances (% w/w) were determined by HPLC method.

[2] = Water content by Karl Fischer method in the compatibility studies; assay type: physicochemical
Experimental: as §1

[3] = with Aerosol, Drug:Excipient 1:0.1
[4] = with Croscarmellose sodium, Drug:Excipient 1:0.5
[5] = with Cross povidone, Drug:Excipient 1:0.5
[6] = with Dicalcium phosphate, Drug:Excipient 1:2^
[7] = with Dicalcium phosphate, Drug:Excipient 1:10
[8] = with Hydroxypropyl methylcellulose 5 cps, Drug:Excipient 1:0.5
[9] = with Mg. Stearate, Drug:Excipient 1:0.1
[10] = with Micro crystalline cellulose, Drug:Excipient 1:10
[11] = with Microcrystalline cellulose, Drug:Excipient 1:2^
[12] = with Opadry ®, Drug:Excipient 1:0.5
[13] = with Pearlitol, Drug:Excipient 1:2^
[14] = with Pearlitol, Drug:Excipient 1:10
[15] = with Polyethylene glycol 400, Drug:Excipient 1:0.1
[16] = with Polyvinyl pyrrolidone K 30, Drug:Excipient 1:0.5
[17] = with Sodium lauryl sodium, Drug:Excipient 1:0.5
[18] = with Sodium starch glycolate, Drug:Excipient 1:0.5
[19] = with Starch, Drug:Excipient 1:2^
[20] = with Starch, Drug:Excipient 1:10
[21] = with Talc, Drug:Excipient 1:0.1
[22] = with Titanium dioxide, Drug:Excipient 1:0.5

CC(C)(N)CNC(=O)C[C@H]1CC[C@]2(CC1)OOC1(O2)C2CC3CC(C2)CC1C3.O=C(O)/C=C\C(=O)O (stereo partly drawn) [Active compound I, cis-adamantane-2-spiro-3′-8′-[[[(2′-amino-2′-methylpropyl)amino]carbonyl]-methyl]-1′,2′,4′-trioxaspiro[4.5]decane hydrogen maleate]
Compatibility with excipient ([1]; Microcrystalline cellulose): most satisfactory results
Compatibility with excipient ([1]; Starch, when used in higher amounts): incompatible
Compatibility with excipient ([1]; dicalcium phosphate, at 60° C.): increase in related substances
Compatibility with excipient ([1]; lactose, degradation by other mechanisms such as Maillard reaction): incompatible
Total Related Substance (% w/w) After 2 weeks/60° C. [1, 3]: 0.86 % w/w
Total Related Substance (% w/w) After 4 weeks/50° C. [1, 3]: 0.66 % w/w
Total Related Substance (% w/w) Initial [1, 3]: 0.14 % w/w
Total Related Substance (% w/w) After 2 weeks/60° C. [1, 4]: 0.35 % w/w
Total Related Substance (% w/w) After 4 weeks/50° C. [1, 4]: 0.34 % w/w
Total Related Substance (% w/w) Initial [1, 4]: 0.09 % w/w
Total Related Substance (% w/w) After 2 weeks/60° C. [1, 5]: 0.68 % w/w
Total Related Substance (% w/w) After 4 weeks/50° C. [1, 5]: 0.40 % w/w
Total Related Substance (% w/w) Initial [1, 5]: 0.13 % w/w
Total Related Substance (% w/w) After 2 weeks/60° C. [1, 6]: 1.32 % w/w
Total Related Substance (% w/w) After 4 weeks/50° C. [1, 6]: 0.77 % w/w
Total Related Substance (% w/w) Initial [1, 6]: 0.07 % w/w
Total Related Substance (% w/w) After 2 weeks/60° C. [1, 7]: 6.07 % w/w
Total Related Substance (% w/w) After 4 weeks/50° C. [1, 7]: 0.61 % w/w
Total Related Substance (% w/w) Initial [1, 7]: 0.17 % w/w
Total Related Substance (% w/w) After 2 weeks/60° C. [1, 8]: 1.05 % w/w
Total Related Substance (% w/w) After 4 weeks/50° C. [1, 8]: 0.70 % w/w
Total Related Substance (% w/w) Initial [1, 8]: 0.17 % w/w
Total Related Substance (% w/w) After 2 weeks/60° C. [1, 9]: 0.86 % w/w
Total Related Substance (% w/w) After 4 weeks/50° C. [1, 9]: 0.65 % w/w
Total Related Substance (% w/w) Initial [1, 9]: 0.13 % w/w
Total Related Substance (% w/w) After 2 weeks/60° C. [1, 10]: 1.02 % w/w
Total Related Substance (% w/w) After 4 weeks/50° C. [1, 10]: 0.78 % w/w
Total Related Substance (% w/w) Initial [1, 10]: 0.39 % w/w
Total Related Substance (% w/w) After 2 weeks/60° C. [1, 11]: 0.74 % w/w
Total Related Substance (% w/w) After 4 weeks/50° C. [1, 11]: 0.70 % w/w
Total Related Substance (% w/w) Initial [1, 11]: 0.19 % w/w
Total Related Substance (% w/w) After 2 weeks/60° C. [1, 12]: 0.96 % w/w
Total Related Substance (% w/w) After 4 weeks/50° C. [1, 12]: 1.85 % w/w
Total Related Substance (% w/w) Initial [1, 12]: 0.17 % w/w
Total Related Substance (% w/w) After 2 weeks/60° C. [1, 13]: 0.77 % w/w
Total Related Substance (% w/w) After 4 weeks/50° C. [1, 13]: 0.72 % w/w
Total Related Substance (% w/w) Initial [1, 13]: 0.14 % w/w
Total Related Substance (% w/w) After 2 weeks/60° C. [1, 14]: 0.70 % w/w
Total Related Substance (% w/w) After 4 weeks/50° C. [1, 14]: 0.46 % w/w
Total Related Substance (% w/w) Initial [1, 14]: 0.14 % w/w
Total Related Substance (% w/w) After 2 weeks/60° C. [1, 15]: 0.68 % w/w
Total Related Substance (% w/w) After 4 weeks/50° C. [1, 15]: 0.66 % w/w
Total Related Substance (% w/w) Initial [1, 15]: 0.14 % w/w
Total Related Substance (% w/w) After 2 weeks/60° C. [1, 16]: 0.79 % w/w
Total Related Substance (% w/w) After 4 weeks/50° C. [1, 16]: 0.33 % w/w
Total Related Substance (% w/w) Initial [1, 16]: 0.00 % w/w
Total Related Substance (% w/w) After 2 weeks/60° C. [1, 17]: 1.59 % w/w
Total Related Substance (% w/w) After 4 weeks/50° C. [1, 17]: 0.92 % w/w
Total Related Substance (% w/w) Initial [1, 17]: 0.15 % w/w
Total Related Substance (% w/w) After 2 weeks/60° C. [1, 18]: 0.89 % w/w
Total Related Substance (% w/w) After 4 weeks/50° C. [1, 18]: 0.43 % w/w
Total Related Substance (% w/w) Initial [1, 18]: 0.13 % w/w
Total Related Substance (% w/w) After 2 weeks/60° C. [1, 19]: 0.74 % w/w
Total Related Substance (% w/w) After 4 weeks/50° C. [1, 19]: 0.60 % w/w
Total Related Substance (% w/w) Initial [1, 19]: 0.08 % w/w
Total Related Substance (% w/w) After 2 weeks/60° C. [1, 20]: 4.13 % w/w
Total Related Substance (% w/w) After 4 weeks/50° C. [1, 20]: 0.60 % w/w
Total Related Substance (% w/w) Initial [1, 20]: 0.07 % w/w
Total Related Substance (% w/w) After 2 weeks/60° C. [1, 21]: 0.90 % w/w
Total Related Substance (% w/w) After 4 weeks/50° C. [1, 21]: 0.63 % w/w
Total Related Substance (% w/w) Initial [1, 21]: 0.15 % w/w
Total Related Substance (% w/w) After 2 weeks/60° C. [1, 22]: 0.93 % w/w
Total Related Substance (% w/w) After 4 weeks/50° C. [1, 22]: 0.57 % w/w
Total Related Substance (% w/w) Initial [1, 22]: 0.16 % w/w
Water (% w/w) [2, 3]: 0.27 % w/w
Water (% w/w) [2, 4]: 0.59 % w/w
Water (% w/w) [2, 5]: 3.49 % w/w
Water (% w/w) [2, 6]: 2.01 % w/w
Water (% w/w) [2, 7]: 2.14 % w/w
Water (% w/w) [2, 8]: 1.22 % w/w
Water (% w/w) [2, 9]: 0.46 % w/w
Water (% w/w) [2, 10]: 4.94 % w/w
Water (% w/w) [2, 11]: 3.69 % w/w
Water (% w/w) [2, 12]: 0.46 % w/w
Water (% w/w) [2, 13]: 0.02 % w/w
Water (% w/w) [2, 14]: 0.52 % w/w
Water (% w/w) [2, 15]: 0.88 % w/w
Water (% w/w) [2, 16]: 3.02 % w/w
Water (% w/w) [2, 17]: 0.79 % w/w
Water (% w/w) [2, 18]: 1.43 % w/w
Water (% w/w) [2, 19]: 4.73 % w/w
Water (% w/w) [2, 21]: 0.12 % w/w
Water (% w/w) [2, 22]: 0.18 % w/w
